Key:
[1] = molecular target: GDP-bound NRAS wild-type protein (Homo sapiens, UniProt P01111); assay: Binding to NRAS by surface plasmon resonance (SPR), Single Cycle Kinetics; settings: KD ratio NRAS/KRAS, class symbols
[2] = molecular target: GDP-bound HRAS wild-type protein (Homo sapiens, UniProt P01112); assay: Binding to HRAS by surface plasmon resonance (SPR), Single Cycle Kinetics; settings: KD ratio HRAS/KRAS, class symbols
Chain of GDP-bound HRAS wild-type protein (P01112 whole entry): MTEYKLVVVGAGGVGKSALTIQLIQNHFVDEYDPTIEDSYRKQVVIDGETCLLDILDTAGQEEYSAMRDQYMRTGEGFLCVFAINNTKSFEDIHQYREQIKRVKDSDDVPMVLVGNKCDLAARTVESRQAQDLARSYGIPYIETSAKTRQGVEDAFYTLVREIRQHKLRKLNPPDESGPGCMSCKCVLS

Chain of GDP-bound NRAS wild-type protein (P01111 whole entry): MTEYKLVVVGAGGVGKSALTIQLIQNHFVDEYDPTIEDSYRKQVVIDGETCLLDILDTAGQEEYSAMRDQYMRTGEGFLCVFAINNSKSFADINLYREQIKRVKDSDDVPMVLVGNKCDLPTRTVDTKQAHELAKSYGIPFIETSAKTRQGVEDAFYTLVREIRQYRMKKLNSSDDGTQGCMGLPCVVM

SMILES | NRAS/KRAS (ratio of KD value with respect to GDP-bound NRAS wild-type protein to KD value with respect to KRAS) [1] | HRAS/KRAS (ratio of KD value with respect to GDP-bound HRAS wild-type protein to KD value with respect to KRAS) [2]
CCOC[C@H]1C(=O)N[C@@H]([C@@H](C)CC)C(=O)N(C)CC(=O)N(C)[C@H]2C/C=C\CCN(C2=O)[C@@H](Cc2ccc(C(F)(F)F)cc2)C(=O)N(C)CC(=O)N[C@@H](CCc2ccc(C(F)(F)F)c(OC)c2)C(=O)N2C[C@H](OCC)C[C@H]2C(=O)NC2(CC(C)(C)C2)C(=O)N(C)[C@@H](CC2CCC2)C(=O)N(C)[C@H](C(=O)N(C)C)CC(=O)N1C [PP2765] | A (a compound having 10 or more and less than 20 is denoted as A) | A (a compound having 10 or more and less than 20 is denoted as A)
CCC[C@H]1C(=O)N[C@@H]([C@@H](C)CC)C(=O)N(C)CC(=O)N(C)[C@H]2C/C=C\CCN(C2=O)[C@@H](Cc2ccc(C(F)(F)F)cc2)C(=O)N(C)CC(=O)N[C@@H](CCc2ccc(Cl)c(Cl)c2)C(=O)N2C[C@H](OCC)C[C@H]2C(=O)NC2(CC(C)(C)C2)C(=O)N(C)[C@@H](CC2CCC2)C(=O)N(C)[C@H](C(=O)N(C)C)CC(=O)N1C [PP2766] | A (a compound having 10 or more and less than 20 is denoted as A) | A (a compound having 10 or more and less than 20 is denoted as A)
CCOC[C@H]1C(=O)N[C@@H]([C@@H](C)CC)C(=O)N(C)CC(=O)N(C)[C@H]2C/C=C\CCN(C2=O)[C@@H](Cc2ccc(C(F)(F)F)cc2)C(=O)N(C)CC(=O)N[C@@H](CCc2ccc(Cl)c(Cl)c2)C(=O)N2C[C@H](OCC)C[C@H]2C(=O)NC2(CC(C)(C)C2)C(=O)N(C)[C@@H](CC2CCC2)C(=O)N(C)[C@H](C(=O)N(C)C)CC(=O)N1C [PP2767] | A (a compound having 10 or more and less than 20 is denoted as A) | A (a compound having 10 or more and less than 20 is denoted as A)
CCC[C@H]1C(=O)N[C@@H]([C@@H](C)CC)C(=O)N(C2CC2)CC(=O)N(C)[C@H]2C/C=C\CCN(C2=O)[C@@H](Cc2ccc(C(F)(F)F)cc2)C(=O)N(C)CC(=O)N[C@@H](CCc2cc(F)c(C(F)(F)F)c(F)c2)C(=O)N2C[C@H](OCC)C[C@H]2C(=O)NC2(CC(C)(C)C2)C(=O)N(C)[C@@H](CC2CCC2)C(=O)N(C)[C@H](C(=O)N(C)C)CC(=O)N1C [PP2768] | A (a compound having 10 or more and less than 20 is denoted as A) | A (a compound having 10 or more and less than 20 is denoted as A)
CCO[C@@H]1C[C@H]2C(=O)NC3(CC(C)(C)C3)C(=O)N(C)[C@@H](CC3CCC3)C(=O)N(C)[C@H](C(=O)N(C)C)CC(=O)N(C)[C@@H](COC)C(=O)N[C@@H]([C@@H](C)CC)C(=O)N(C3CC3)CC(=O)N(C)[C@H]3C/C=C\CCN(C3=O)[C@@H](Cc3ccc(C(F)(F)F)cc3)C(=O)N(C)CC(=O)N[C@@H](CCc3cc(F)c(C(F)(F)F)c(F)c3)C(=O)N2C1 [PP2769] | AA (a compound having 20 or more is denoted as AA) | A (a compound having 10 or more and less than 20 is denoted as A)
CCC[C@H]1C(=O)N[C@@H]([C@@H](C)CC)C(=O)N(C2CC2)CC(=O)N(C)[C@H]2C/C=C\CCN(C2=O)[C@@H](Cc2ccc(C(F)(F)F)cc2)C(=O)N(C)CC(=O)N[C@@H](CCc2ccc(C(F)(F)F)c(OC)c2)C(=O)N2C[C@H](OCC)C[C@H]2C(=O)NC2(CC(C)(C)C2)C(=O)N(C)[C@@H](CC2CCC2)C(=O)N(C)[C@H](C(=O)N(C)C)CC(=O)N1C [PP2770] | A (a compound having 10 or more and less than 20 is denoted as A) | A (a compound having 10 or more and less than 20 is denoted as A)
CCO[C@@H]1C[C@H]2C(=O)NC3(CC(C)(C)C3)C(=O)N(C)[C@@H](CC3CCC3)C(=O)N(C)[C@H](C(=O)N(C)C)CC(=O)N(C)[C@@H](COC)C(=O)N[C@@H]([C@@H](C)CC)C(=O)N(C3CC3)CC(=O)N(C)[C@H]3C/C=C\CCN(C3=O)[C@@H](Cc3ccc(C(F)(F)F)cc3)C(=O)N(C)CC(=O)N[C@@H](CCc3ccc(C(F)(F)F)c(OC)c3)C(=O)N2C1 [PP2771] | AA (a compound having 20 or more is denoted as AA) | A (a compound having 10 or more and less than 20 is denoted as A)
CCO[C@@H]1C[C@H]2C(=O)NC3(CCC3)C(=O)N(C)[C@@H](CC(C)(C)C)C(=O)N(C)[C@H](C(=O)N3CCCC3)CC(=O)N(C)[C@@H](CC)C(=O)N[C@@H]([C@@H](C)CC)C(=O)N(C)CC(=O)N(C)[C@H]3C/C=C\CCN(C3=O)[C@@H](CC3CCCCC3)C(=O)N(C)CC(=O)N[C@@H](CCc3cc(F)c(C(F)(F)F)c(F)c3)C(=O)N2C1 [PP2772] | B (a compound having 3 or more and less than 10 is denoted as B) | B (a compound having 3 or more and less than 10 is denoted as B)
CCO[C@@H]1C[C@H]2C(=O)NC3(CC(C)(C)C3)C(=O)N(C)[C@@H](CC(C)(C)C)C(=O)N(C)[C@H](C(=O)N(C)C)CC(=O)N(C)[C@@H](C(C)C)C(=O)N[C@@H]([C@@H](C)CC)C(=O)N(C)CC(=O)N(C)[C@H]3C/C=C\CCN(C3=O)[C@@H](Cc3ccc(C(F)(F)F)cc3)C(=O)N(C)CC(=O)N[C@@H](CCc3ccc(C(F)(F)F)c(OC)c3)C(=O)N2C1 [PP2773] | B (a compound having 3 or more and less than 10 is denoted as B) | B (a compound having 3 or more and less than 10 is denoted as B)
CCC[C@H]1C(=O)N[C@@H]([C@@H](C)CC)C(=O)N(C)CC(=O)N(C)[C@H]2C/C=C\CCN(C2=O)[C@@H](Cc2ccc(C(F)(F)F)cc2)C(=O)N(C)CC(=O)N[C@@H](CCc2ccc(CC)c(Cl)c2)C(=O)N2C[C@H](OCC)C[C@H]2C(=O)NC2(CC(C)(C)C2)C(=O)N(C)[C@@H](C(CC)CC)C(=O)N(C)[C@H](C(=O)N(C)C)CC(=O)N1C [PP2777] | AA (a compound having 20 or more is denoted as AA) | A (a compound having 10 or more and less than 20 is denoted as A)
CCC[C@H]1C(=O)N[C@@H]([C@@H](C)CC)C(=O)N(C)CC(=O)N(C)[C@H]2C/C=C\CCN(C2=O)[C@@H](Cc2ccc(C)cc2)C(=O)N(C)CC(=O)N[C@@H](CCc2ccc(CC)c(Cl)c2)C(=O)N2C[C@H](OCC)C[C@H]2C(=O)NC2(CC(C)(C)C2)C(=O)N(C)[C@@H](C2CCCC2)C(=O)N(C)[C@H](C(=O)N(C)C)CC(=O)N1C [PP2778] | A (a compound having 10 or more and less than 20 is denoted as A) | A (a compound having 10 or more and less than 20 is denoted as A)
CCC[C@H]1C(=O)N[C@@H]([C@@H](C)CC)C(=O)N(C)CC(=O)N(C)[C@H]2C/C=C\CCN(C2=O)[C@@H](Cc2ccc(C)cc2)C(=O)N(C)CC(=O)N[C@@H](CCc2ccc(CC)c(Cl)c2)C(=O)N2C[C@H](OCC)C[C@H]2C(=O)NC2(CC(C)(C)C2)C(=O)N(C)[C@@H](C(CC)CC)C(=O)N(C)[C@H](C(=O)N(C)C)CC(=O)N1C [PP2779] | A (a compound having 10 or more and less than 20 is denoted as A) | A (a compound having 10 or more and less than 20 is denoted as A)
CCC[C@H]1C(=O)N[C@@H]([C@@H](C)CC)C(=O)N(C)CC(=O)N(C)[C@H]2C/C=C\CCN(C2=O)[C@@H](Cc2ccc(C(F)(F)F)cc2)C(=O)N(C)CC(=O)N[C@@H](CCc2cc(F)c(C(F)F)c(F)c2)C(=O)N2C[C@H](OCC)C[C@H]2C(=O)NC2(CC(C)(C)C2)C(=O)N(C)[C@@H](C2CCCC2)C(=O)N(C)[C@H](C(=O)N(C)C)CC(=O)N1C [PP2780] | A (a compound having 10 or more and less than 20 is denoted as A) | A (a compound having 10 or more and less than 20 is denoted as A)
CCC[C@H]1C(=O)N[C@@H]([C@@H](C)CC)C(=O)N(C)CC(=O)N(C)[C@H]2C/C=C\CCN(C2=O)[C@@H](Cc2ccc(C(F)(F)F)cc2)C(=O)N(C)CC(=O)N[C@@H](CCc2cc(F)c(C(F)F)c(F)c2)C(=O)N2C[C@H](OCC)C[C@H]2C(=O)NC2(CC(C)(C)C2)C(=O)N(C)[C@@H](C(CC)CC)C(=O)N(C)[C@H](C(=O)N(C)C)CC(=O)N1C [PP2781] | AA (a compound having 20 or more is denoted as AA) | A (a compound having 10 or more and less than 20 is denoted as A)
CCC[C@H]1C(=O)N[C@@H]([C@@H](C)CC)C(=O)N(C)CC(=O)N(C)[C@H]2C/C=C\CCN(C2=O)[C@@H](Cc2ccc(C)cc2)C(=O)N(C)CC(=O)N[C@@H](CCc2cc(F)c(C(F)F)c(F)c2)C(=O)N2C[C@H](OCC)C[C@H]2C(=O)NC2(CC(C)(C)C2)C(=O)N(C)[C@@H](C2CCCC2)C(=O)N(C)[C@H](C(=O)N(C)C)CC(=O)N1C [PP2782] | A (a compound having 10 or more and less than 20 is denoted as A) | A (a compound having 10 or more and less than 20 is denoted as A)
CCC[C@H]1C(=O)N[C@@H]([C@@H](C)CC)C(=O)N(C)CC(=O)N(C)[C@H]2C/C=C\CCN(C2=O)[C@@H](Cc2ccc(C(F)(F)F)cc2)C(=O)N(C)CC(=O)N[C@@H](CCc2ccc(Cl)c(C(F)(F)F)c2)C(=O)N2C[C@H](OCC)C[C@H]2C(=O)NC2(CC(C)(C)C2)C(=O)N(C)[C@@H](C2CCCC2)C(=O)N(C)[C@H](C(=O)N(C)C)CC(=O)N1C [PP2784] | A (a compound having 10 or more and less than 20 is denoted as A) | A (a compound having 10 or more and less than 20 is denoted as A)
